Measurements reported in patent publication US20200055835A1, “USE OF TRICYCLIC SESQUITERPENE LACTONES IN THE TREATMENT OF OBESITY AND RELATED DISEASES AND NON-THERAPEUTIC TREATABLE CONDITIONS” (NEEM BIOTECH LTD., priority 2010, published 2020).

Assays:
[1] = system: Mealworm (Tenebrio molitor); conditions: cited from earlier work
[2] = Feeding experiment: body weight and body fat (DEXA) in rats; format: in vivo, Sprague-Dawley (SD) rats; conditions: high fat diet (34% fat), 0.1% by weight in chow, 8 weeks, male SD rats
Protocol: For the present experiments, the compound to be tested is added to the feed of the individuals. This is beneficial against enforcement because it allows a validation of the acceptance of the test compounds. The experiments are performed with negative control and are correlated to a commercial slimming product.
Cynaropicrin is tested using six weeks old, none-adult, male Sprague-Dawley (SD) rats (Charles Rivers, Sulzfeld, Germany). Cynaropicrin is mixed with the chow (ssniff Spezial-diäten GmbH, Soest, Germany) to a final concentration of 0.1% by weight and fed for 8 weeks in two different treatment regimes: • Balanced diet (standardised to 4% fat) • High fat diet (standardised to 34% fat)
Controls obtain the same diet without Cynaropicrin or other anti-obesity additives.
Body weight is studied and analysed every week, body fat and mineral bone density are analysed by DEXA (scanner, see Example 3) in week 0, in week 4 and at the last day of the study in week 8. Furthermore, the white body fat weight is determined after removal of the tissue at the end of the feeding study in week 8. For the DEXA measurements the same apparatuses and methodology are used as described in example 3.
The GE Lunar Piximus2 DEXA scanner (GE Healthcare, Munich, Germany) gives accurate information on differences in body composition in mice (see Nagy, T R and Clair, A-L. Precision and accuracy of dual-energy X-ray absorptiometry for determining in vivo body composition in mice. Obesity Res. 2000; 8:392-398; Brommage Am J Physiol Endocrinol Metab 285: E454-E459, 2003). Validation and calibration of DEXA body composition in mice; Sarah L. Johnston, Wendy L. Peacock, Lynn M. Bell, Michel Lonchampt, and John R. Speakman, Obesity Research 2005 13 (9), 1558). One scanning procedure takes up to five minutes per individual and provides data on fat mass, lean mass, bone mineral content and bone mineral density. The method is validated against Soxhlet (SOX) fat extraction in mice and a strong correlation (r 2>0.95) between fatDEXA and fatSOX is determined (published information).
As a control experiment within the high fat diet, epigallocatechin-3-gallate (EGCG, Chengdu Purification Technology Development Co. Ltd, Chengdu, China) in pure form is used as the standard for comparison of potency and differentiation as well as benchmark against competing compounds or formulations against obesity. […] EGCG is marketed as a functional food ingredient claiming an anti-obesity effect (Wolfram, S et al. Mol Nutr Food Res 2006; 50(2):176-87; Wolfram, S et al. Ann Nutr Metab 2005; 49(1):54-6, Klaus, S et al. Int J Obes 2005; 29(6):615-23; Hill, A M et al. J Am Coil Nutr. 2007; 26(4):396S-402S). The final concentration of EGCG used is 0.1%, too.

[3] = olive oil-loaded mice, 6 hours; cited from earlier work
[4] = Clinical blood chemistry of the rat study; format: in vivo; conditions: rats under high fat (HF) diet
Protocol: The following parameters are involved in energy metabolism and thereby related to the metabolic syndrome. They are determined from blood samples taken in week 1; 4; and 8 of the rat study: Total cholesterol levels; HDL, LDL, TG (triglycerides), and glucose. Furthermore, the activity of liver enzymes such as ALT (alanin-aminotransferase), AST (aspartat-aminotransferase), and AP (alkaline phosphatase), as well as the concentration of Bilirubin, Albumin, Creatin Kinase, and electrolytes (Na+; K+; Ca++; Cl−) are determined as safety markers to exclude any toxic effects such as e.g. liver damage.
Blood samples are taken from the sublingual vein and collected in Li-Heparin coated vials. The blood samples are stored on ice for a short period of time before it is centrifuged for 15 minutes at 8° C. and 3500 rpm. The supernatant plasma is transferred in a reaction tube and stored at −80° C. until clinical chemistry measurements are performed. All measurements are conducted using an Olympus AU 400 at the gene centre of the LMU Munich, working group of Prof. Wolf. Statistical calculations are performed with Statistika (Statsoft (Europe) GmbH, Hamburg, Germany) und Sigma Stat (Jandel Scientific, San Raphael, Calif., USA).

[5] = Pathological parameters: macroscopic organ inspection and kidney histo-pathology; format: in vivo; conditions: rat feeding study
Protocol: Main organs are analysed macroscopically for safety reasons and to investigate the effects of the different diets on these organs (e.g. induction of […] (“fatty”) livers etc.). After organ removal, macroscopic inspections of e.g. heart, kidneys; GI tract, spleen, liver are performed.

| Compound | antifeeding activity [1] | larval growth [1] | lipid levels in blood [1] | body fat accumulation (DEXA) in comparison to the control groups [2] | body weight accumulation in comparison to the control groups [2] | serum TG, long term [3] | also measured |
| --- | --- | --- | --- | --- | --- | --- | --- |
| C=C1C(=O)O[C@H]2[C@H]1[C@@H](OC(=O)[C@]1(C)CO1)CC(=C)[C@@H]1C[C@H](O)[C@]3(CO3)[C@H]21 [repin, reference compound] | antifeeding activity | inhibition of larval growth | no effect |  |  |  |  |
| epigallocatechin-3-gallate [EGCG, reference compound] |  |  |  | No effects | No effects |  |  |
| C=C(CO)C(=O)OC1CC(=C)C2CC(O)C(=C)C2C2OC(=O)C(=C)C12 (centres unmarked) [Cynaropicrin, (8-hydroxy-3,6,9-trimethylidene-2-oxo-3a,4,5,6a,7,8,9a, 9b-octahydroazuleno[4,5-b]furan-4-yl) 2-(hydroxymethyl)prop-2-enoate] |  |  |  | reduced body fat accumulation | reduced body weight accumulation | increase | total cholesterol:HDL/LDL ratio compared to the control group (HF only) [4]: improved; macroscopic inspection of main organs (heart, kidneys, GI tract, spleen, liver) ([5]; after organ removal): no significant alterations; histo-pathological analysis of the kidneys (morphology and function) [5]: does not result in any observation of an adverse effect |
| C=C1CC(O)C2C(=C)C(=O)OC2C2C(C)C(=O)CC12 (centres unmarked) [Grossheimin, 4-hydroxy-9-methyl-3,6-dimethylene-3a,4,5,6a,7,9,9a,9b-octahydroazuleno[5,4-d]furan-2,8-dione] | no anti-feeding | inhibition of larval growth | no effect |  |  |  | absorption of digested food constituents [1]: little decrease; efficiency in digesting [1]: little decrease |
| C=C(C)C(=O)O[C@H]1CC(=C)[C@@H]2C[C@H](O)C(=C)[C@@H]2[C@H]2OC(=O)C(=C)[C@@H]21 [aguerine B, reference compound] |  |  |  |  |  | increase |  |
